Experimental data published in PubChem BioAssay AID192 (DTP/NCI, 2004).
Where “and” joins values, the source holds several entries; their conditions need not be identical. Equal values may be shown once. Toxic doses and inconclusive results are not listed.

Tested on: BDF1 mice, B16 melanoma ip, median survival T/C
Experiment: NCI In Vivo Anticancer Drug Screen. Data for tumor model B16 Melanoma (intraperitoneal) in B6D2F1 (BDF1) mice
Settings: endpoint: median survival time, higher = longer survival
In short: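 Survival or tumor size is measured after treatment of tumor-bearing mice and normalised to the vehicle-treated control group.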

[1] = dose: 25.0 mg/kg/injection, schedule: Q01DX009 (ip), vehicle: saline
[2] = dose: 100.0 mg/kg/injection, schedule: Q01DX009 (ip), vehicle: saline with Tween-80

## Cc1ccc(C)c(NC(=O)Nc2cccc(Cl)c2)c1
dose: 100.0 mg/kg/injection, schedule: Q01DX009 (ip), vehicle: Klucel (hydroxypropylcellulose) (HPC)
  T/C: 102 % of control
dose: 200.0 mg/kg/injection, schedule: Q01DX009 (ip), vehicle: Klucel (hydroxypropylcellulose) (HPC)
  T/C: 100 % of control

## C#CCN(C)Cc1ccccc1
dose: 12.5 mg/kg/injection, schedule: Q01DX009 (ip), vehicle: saline
  T/C: 97 % of control
[1]
  T/C: 97 % of control
dose: 50.0 mg/kg/injection, schedule: Q01DX009 (ip), vehicle: saline
  T/C: 100 % of control

## CCN(CC)C(C(=O)Nc1ccccc1)C(=O)Nc1ccccc1
[2]
  T/C: 100 % of control
dose: 200.0 mg/kg/injection, schedule: Q01DX009 (ip), vehicle: saline with Tween-80
  T/C: 90 % of control
dose: 400.0 mg/kg/injection, schedule: Q01DX009 (ip), vehicle: saline with Tween-80
  T/C: 95 % of control

## NC(=S)n1cccn1
dose: 25.0 mg/kg/injection, schedule: Q01DX009 (ip), vehicle: saline with Tween-80
  T/C: 96 % of control
dose: 50.0 mg/kg/injection, schedule: Q01DX009 (ip), vehicle: saline with Tween-80
  T/C: 114 % of control
[2]
  T/C: 94 % of control

## COC1C(O)CC(OC2CC(Oc3cc4cc5c(c(O)c4c(O)c3C)C(=O)[C@@H](OC3CC(OC4CC(OC6CC(C)(O)C(OC(C)=O)C(C)O6)C(O)C(C)O4)C(O)C(C)O3)[C@H]([C@H](OC)C(=O)[C@@H](O)[C@@H](C)O)C5)OC(C)C2OC(C)=O)OC1C (some centres not stated)
dose: 0.01 mg/kg/injection, schedule: Q01DX009 (ip), vehicle: Klucel (hydroxypropylcellulose) (HPC)
  T/C: 111 % of control
dose: 0.02 mg/kg/injection, schedule: Q01DX009 (ip), vehicle: Klucel (hydroxypropylcellulose) (HPC)
  T/C: 111 % of control
dose: 0.02 mg/kg/injection, schedule: Q01DX009 (ip), vehicle: saline
  T/C: 167 % of control
dose: 0.03 mg/kg/injection, schedule: Q01DX009 (ip), vehicle: saline
  T/C: 152 % of control
dose: 0.04 mg/kg/injection, schedule: Q01DX009 (ip), vehicle: Klucel (hydroxypropylcellulose) (HPC)
  T/C: 123 % of control
dose: 0.04 mg/kg/injection, schedule: Q01DX009 (ip), vehicle: saline
  T/C: 175 % of control
dose: 0.07 mg/kg/injection, schedule: Q01DX009 (ip), vehicle: saline
  T/C: 161 % of control
dose: 0.08 mg/kg/injection, schedule: Q01DX009 (ip), vehicle: saline
  T/C: 154 % of control
dose: 0.13 mg/kg/injection, schedule: Q01DX009 (ip), vehicle: saline
  T/C: 150 % of control
dose: 0.16 mg/kg/injection, schedule: Q01DX009 (ip), vehicle: Klucel (hydroxypropylcellulose) (HPC)
  T/C: 150 % of control and 157 % of control
dose: 0.16 mg/kg/injection, schedule: Q01DX009 (ip), vehicle: saline
  T/C: 152 % of control
dose: 0.25 mg/kg/injection, schedule: Q01DX009 (ip), vehicle: saline
  T/C: 152 % of control
dose: 0.32 mg/kg/injection, schedule: Q01DX009 (ip), vehicle: saline
  T/C: 94 % of control
dose: 3.8 micrograms/kg/injection, schedule: Q01DX009 (ip), vehicle: water
  T/C: 111 % of control
dose: 7.5 micrograms/kg/injection, schedule: Q01DX009 (ip), vehicle: water
  T/C: 109 % of control
dose: 15.0 micrograms/kg/injection, schedule: Q01DX009 (ip), vehicle: Klucel (hydroxypropylcellulose) (HPC)
  T/C: 109 % of control
dose: 15.0 micrograms/kg/injection, schedule: Q01DX009 (ip), vehicle: saline
  T/C: 94 % of control
dose: 30.0 micrograms/kg/injection, schedule: Q01DX009 (ip), vehicle: Klucel (hydroxypropylcellulose) (HPC)
  T/C: 96 % of control
dose: 30.0 micrograms/kg/injection, schedule: Q01DX009 (ip), vehicle: saline
  T/C: 88 % of control
dose: 30.0 micrograms/kg/injection, schedule: Q01DX009 (ip), vehicle: water
  T/C: 159 % of control
dose: 60.0 micrograms/kg/injection, schedule: Q01DX009 (ip), vehicle: saline
  T/C: 100 % of control
dose: 120.0 micrograms/kg/injection, schedule: Q01DX009 (ip), vehicle: Klucel (hydroxypropylcellulose) (HPC)
  T/C: 109 % of control
dose: 120.0 micrograms/kg/injection, schedule: Q01DX009 (ip), vehicle: saline
  T/C: 94 % of control
dose: 240.0 micrograms/kg/injection, schedule: Q01DX009 (ip), vehicle: saline
  T/C: 100 % of control

## CN(C)CCCc1c2ccccc2nc2ccc(Cl)cc12
dose: 12.5 mg/kg/injection, schedule: Q04DX003 (ip), vehicle: saline
  T/C: 117 % of control
dose: 25.0 mg/kg/injection, schedule: Q04DX003 (ip), vehicle: saline
  T/C: 114 % of control
dose: 50.0 mg/kg/injection, schedule: Q04DX003 (ip), vehicle: saline
  T/C: 108 % of control

## C#CCOCC1CN(C)C(=O)O1 (configuration not stated)
[1]
  T/C: 109 % of control
dose: 100.0 mg/kg/injection, schedule: Q01DX009 (ip), vehicle: saline
  T/C: 102 % of control
dose: 200.0 mg/kg/injection, schedule: Q01DX009 (ip), vehicle: saline
  T/C: 109 % of control
dose: 400.0 mg/kg/injection, schedule: Q01DX009 (ip), vehicle: saline
  T/C: 107 % of control
